Results reported in patent US12286442B2, “Methods and materials for increasing transcription factor eb polypeptide levels” (University of Pittsburgh—Of the Commonwealth System of …, priority 2019, dated 2025).

Assays:
BEAS-2B cells = assay: Toxicity: compound concentration needed to induce greater than 50 percent of cell loss; type: cell-based, human; conditions: 18 hours incubation
Summary of the method: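 BEAS-2B cells stably expressing TFEB-EGFP treated with serial compound dilutions for 18 h, then PFA-fixed, DAPI-stained and imaged. Toxicity scored as the concentration causing >50% cell loss, binned as ≥25 μM, <25 and >1 μM, or ≤1 μM ("+++").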

TFEB = assay: High content screen measuring TFEB nuclear accumulation (TFEB nuclear/cytosol ratio) in BEAS-2B cells stably expressing TFEB-EGFP; type: cell-based, human; conditions: 18 hours incubation
Summary of the method: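 BEAS-2B cells stably expressing TFEB-EGFP (~2300–2500 per well) pre-incubated 8 hours, then exposed to serially diluted compounds (DMEM low glucose, 2% FBS) for 18 hours, PFA-fixed and DAPI-stained. Imaged nuclear (DAPI mask) vs cytosolic (expanded mask) TFEB-GFP; activity = minimal concentration raising nuclear/cytosol ratio by 25%.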

Structure (SMILES) | toxicity (compound concentration needed to induce greater than 50 percent of cell loss) (BEAS-2B cells) | efficacy (minimal compound concentration needed to increase TFEB nuclear/cytosol ratio by 25%) (TFEB)
Fc1cccc2c(Nc3ccc4ncsc4c3)nc(-c3ccncc3)nc12 [Compound 372] | + (cell loss of greater than 50 percent at a concentration that equals or is greater than 25 μM was represented as) | +++ (“+++” equals ≤1 μM)
Fc1cccc2c(Nc3ccc4nc(C5CC5)sc4c3)nc(-c3ccncc3)nc12 [Compound 373] | + (cell loss of greater than 50 percent at a concentration that equals or is greater than 25 μM was represented as) | ++ (“++” equals between ≤25 μM and >1 μM)
CC(C)c1nc2ccc(Nc3nc(-c4ccncc4)nc4ccccc34)cc2o1 [Compound 374] | + (cell loss of greater than 50 percent at a concentration that equals or is greater than 25 μM was represented as) | ++ (“++” equals between ≤25 μM and >1 μM)
CC(C)c1nc2ccc(Nc3nc(-c4ccncc4)nc4ncccc34)cc2o1 [Compound 375] | + (cell loss of greater than 50 percent at a concentration that equals or is greater than 25 μM was represented as) | +++ (“+++” equals ≤1 μM)
COc1ccc2nc(-c3ccncc3)nc(Nc3ccc4nc(C(C)C)sc4c3)c2c1 [Compound 376] | + (cell loss of greater than 50 percent at a concentration that equals or is greater than 25 μM was represented as) | +++ (“+++” equals ≤1 μM)
Cc1nc2ccc(Nc3nc(-c4ccncc4)nc4c(C)cccc34)cc2o1 [Compound 377] | + (cell loss of greater than 50 percent at a concentration that equals or is greater than 25 μM was represented as) | ++ (“++” equals between ≤25 μM and >1 μM)
Cc1nc2ccc(Nc3nc(-c4ccncc4)nc4c(C)cccc34)cc2s1 [Compound 378] | + (cell loss of greater than 50 percent at a concentration that equals or is greater than 25 μM was represented as) | +++ (“+++” equals ≤1 μM)
Cc1cccc2c(Nc3ccc4nc(C5CC5)sc4c3)nc(-c3ccncc3)nc12 [Compound 379] | + (cell loss of greater than 50 percent at a concentration that equals or is greater than 25 μM was represented as) | +++ (“+++” equals ≤1 μM)
Cc1cccc2c(Nc3ccc4cnsc4c3)nc(-c3ccncc3)nc12 [Compound 380] | + (cell loss of greater than 50 percent at a concentration that equals or is greater than 25 μM was represented as) | ++ (“++” equals between ≤25 μM and >1 μM)
Cc1nc2ccc(Nc3nc(-c4ccncc4)nc4c(F)cccc34)cc2s1 [Compound 381] | + (cell loss of greater than 50 percent at a concentration that equals or is greater than 25 μM was represented as) | +++ (“+++” equals ≤1 μM)
Fc1cccc2c(Nc3ccc4cnsc4c3)nc(-c3ccncc3)nc12 [Compound 382] | + (cell loss of greater than 50 percent at a concentration that equals or is greater than 25 μM was represented as) | + (“+” equals >25 μM)
c1cnc2nc(-c3cncs3)nc(Nc3ccc4[nH]ncc4c3)c2c1 [Compound 383] | + (cell loss of greater than 50 percent at a concentration that equals or is greater than 25 μM was represented as) | ++ (“++” equals between ≤25 μM and >1 μM)
Fc1cc(Nc2nc(N3CCOCC3)nc3ncccc23)cc2cc[nH]c12 [Compound 384] | + (cell loss of greater than 50 percent at a concentration that equals or is greater than 25 μM was represented as) | +++ (“+++” equals ≤1 μM)
Fc1cc(Nc2nc(-c3cc[nH]c3)nc3ncccc23)cc2cc[nH]c12 [Compound 385] | + (cell loss of greater than 50 percent at a concentration that equals or is greater than 25 μM was represented as) | ++ (“++” equals between ≤25 μM and >1 μM)
c1cnc2nc(-c3cncs3)nc(Nc3ccc4[nH]ccc4c3)c2c1 [Compound 386] | + (cell loss of greater than 50 percent at a concentration that equals or is greater than 25 μM was represented as) | +++ (“+++” equals ≤1 μM)
c1ccc2c(Nc3ccc4[nH]nnc4c3)nc(-c3cncs3)nc2c1 [Compound 387] | + (cell loss of greater than 50 percent at a concentration that equals or is greater than 25 μM was represented as) | + (“+” equals >25 μM)
c1ccc2c(Nc3ccc4cnccc4c3)nc(-c3cncs3)nc2c1 [Compound 388] | + (cell loss of greater than 50 percent at a concentration that equals or is greater than 25 μM was represented as) | + (“+” equals >25 μM)
c1ccc2c(Nc3ccc4cn[nH]c4c3)nc(-c3cncs3)nc2c1 [Compound 389] | + (cell loss of greater than 50 percent at a concentration that equals or is greater than 25 μM was represented as) | + (“+” equals >25 μM)
c1ccc2c(Nc3ccc4cnsc4c3)nc(-c3cncs3)nc2c1 [Compound 390] | + (cell loss of greater than 50 percent at a concentration that equals or is greater than 25 μM was represented as) | + (“+” equals >25 μM)
c1cnc2nc(-c3ccncc3)nc(Nc3ccc4nc(C5CC5)oc4c3)c2c1 [Compound 391] | + (cell loss of greater than 50 percent at a concentration that equals or is greater than 25 μM was represented as) | +++ (“+++” equals ≤1 μM)
c1ccc2c(Nc3ccc4sncc4c3)nc(-c3cncs3)nc2c1 [Compound 392] | + (cell loss of greater than 50 percent at a concentration that equals or is greater than 25 μM was represented as) | + (“+” equals >25 μM)
c1ccc2c(Nc3ccc4cnoc4c3)nc(-c3cncs3)nc2c1 [Compound 393] | + (cell loss of greater than 50 percent at a concentration that equals or is greater than 25 μM was represented as) | ++ (“++” equals between ≤25 μM and >1 μM)
c1ccc2c(Nc3ccc4oncc4c3)nc(-c3cncs3)nc2c1 [Compound 394] | + (cell loss of greater than 50 percent at a concentration that equals or is greater than 25 μM was represented as) | + (“+” equals >25 μM)
Fc1cc(Nc2nc(-c3cncs3)nc3ccccc23)cc2cc[nH]c12 [Compound 395] | + (cell loss of greater than 50 percent at a concentration that equals or is greater than 25 μM was represented as) | +++ (“+++” equals ≤1 μM)
Fc1cc(Nc2nc(-c3cncs3)nc3ncccc23)cc2cc[nH]c12 [Compound 396] | + (cell loss of greater than 50 percent at a concentration that equals or is greater than 25 μM was represented as) | +++ (“+++” equals ≤1 μM)
c1cc(-c2cc3cnccc3c(Nc3ccc4[nH]ccc4c3)n2)ccn1 [Compound 397] | + (cell loss of greater than 50 percent at a concentration that equals or is greater than 25 μM was represented as) | ++ (“++” equals between ≤25 μM and >1 μM)
c1cc(-c2cc3cnccc3c(Nc3ccc4nc(C5CC5)sc4c3)n2)ccn1 [Compound 398] | + (cell loss of greater than 50 percent at a concentration that equals or is greater than 25 μM was represented as) | +++ (“+++” equals ≤1 μM)
c1cc(-c2cc3cnccc3c(Nc3ccc4[nH]c(C5CC5)cc4c3)n2)ccn1 [Compound 399] | + (cell loss of greater than 50 percent at a concentration that equals or is greater than 25 μM was represented as) | +++ (“+++” equals ≤1 μM)
Cc1nc2ccc(Nc3nc(-c4ccncc4)cc4ncccc34)cc2s1 [Compound 400] | + (cell loss of greater than 50 percent at a concentration that equals or is greater than 25 μM was represented as) | +++ (“+++” equals ≤1 μM)
